Results reported in US11013748B2, “Budesonide prodrug” (University of Nizwa, priority 2019, dated 2021).
Converted amounts (≈) assume the structure as drawn.

What was measured:
colitis in rats = conditions: literature; cited from earlier work
[1] = Solubility studies of Bu and BuP in buffer media; type: physicochemical; conditions: thermodynamic from solid
Experimental: Solubility studies of the pure Bu and prepared BuP were determined (n=6) by making saturated solutions of HCl buffer, phthalate buffer, phosphate buffer of pH 1.2, 4.0, 6.8 (with and without 10% w/v rat fecal content), and 7.4 respectively. The solutions, kept separately in a conical flask, were subjected to ultrasonic waves in an ultrasonic bath (Sonorex, Bandelin Electronic, Germany) for 30 minutes. Fiber optic probes were inserted at 0 and 30 minutes, and readings taken at 232 nm for Bu and 340 nm for BuP using the fiber optics system

[2] = Partition coefficient, Hansch method (n-octanol/buffer); type: physicochemical
Experimental: The Hansch method was used to determine the partition coefficient between the n-octanol and phosphate buffer (both 10 mL) system. Different pH systems of 1.2, 4.0, 6.8, and 7.4, and n-octanol and double distilled water (both 10 mL, pH 5.8) were prepared. The buffers, n-octanol, and double distilled water were added to a separating funnel. The phases were shaken for 60 minutes. to attain saturation. Ten milligrams of Bu and BuP were added to respective separators and were given 30 minutes of shaking for the drug to achieve sufficient distribution in both the phases. The separators were kept still for 5 minutes, and then the phases were separated. The phases were suitably diluted and analyzed (n=6) using the fiber optics with the UV detector set at 232 nm and 340 nm for Bu and BuP, respectively.

SMILES	effect on colitis in rats (colitis in rats)	solubility at 0 min ([1]; aqueous buffer, Phosphate buffer, pH 6.8) [µg/mL]	solubility at 30 min ([1]; aqueous buffer, Phosphate buffer, pH 6.8, 30 min) [µg/mL]	solubility at 0 min ([1]; aqueous buffer, Phosphate buffer, pH 7.4) [µg/mL]	solubility at 30 min ([1]; aqueous buffer, Phosphate buffer, pH 7.4, 30 min) [µg/mL]	solubility at 0 min ([1]; aqueous buffer, Phthalate buffer, pH 4.0) [µg/mL]	solubility at 30 min ([1]; aqueous buffer, Phthalate buffer, pH 4.0, 30 min) [µg/mL]	solubility at 0 min ([1]; phosphate buffer with 10% w/v rat fecal content, plasma or biological fluid, Phosphate buffer, pH 6.8 + rat fecal content) [µg/mL]	solubility at 30 min ([1]; phosphate buffer with 10% w/v rat fecal content, plasma or biological fluid, Phosphate buffer, pH 6.8 + rat fecal content, 30 min) [µg/mL]	solubility at 0 min ([1]; simulated gastric fluid, HCl buffer, pH 1.2) [µg/mL]	solubility at 30 min ([1]; simulated gastric fluid, HCl buffer, pH 1.2, 30 min ultrasonic bath) [µg/mL]	solubility at 0 min ([1]; Double distilled water, pH 5.8) [µg/mL]	solubility at 30 min ([1]; Double distilled water, pH 5.8, 30 min) [µg/mL]	logP ([2]; n-octanol / HCl buffer, pH 1.2)	logP ([2]; n-octanol / double distilled water, pH 5.8)	logP ([2]; n-octanol / phosphate buffer, pH 6.8)	logP ([2]; n-octanol / phosphate buffer, pH 7.4)	logP ([2]; n-octanol / phthalate buffer, pH 4.0)
CCCC1OC2CC3C4CCC5=CC(=O)C=CC5(C)C4C(O)CC3(C)C2(C(=O)COC2OC(C(=O)O)C(O)C(O)C2O)O1 [budesonide-beta-D-glucuronide]	accelerate the treatment of colitis in rats																	
CCCC1O[C@@H]2C[C@H]3[C@@H]4CCC5=CC(=O)C=C[C@]5(C)[C@H]4[C@@H](O)C[C@]3(C)[C@]2(C(=O)CO)O1 (stereo partly drawn) [Bu, budesonide]		187 ± 1.98 (≈ 435 µM)	356.9 ± 0.99 (≈ 829 µM)	231 ± 2.12 (≈ 537 µM)	476.1 ± 1.99 (≈ 1110 µM)	68.2 ± 0.98 (≈ 158 µM)	148 ± 1.32 (≈ 344 µM)	187.1 ± 0.89	356.9 ± 1.76	25.1 ± 1.43 (≈ 58.3 µM)	88.12 ± 0.67 (≈ 205 µM)	121 ± 1.26 (≈ 281 µM)	209 ± 2.13 (≈ 486 µM)	3.12 ± 0.12	2.87 ± 1.05	2.51 ± 0.36	2.13 ± 1.09	3.01 ± 0.54
